# Earlier results as cited in US20220218582A1, “METHOD FOR DYEING KERATINOUS MATERIAL, COMPRISING THE USE OF AN ORGANOSILICON COMPOUND, A CHROMOPHORIC COMPOUND, A MODIFIED FATTY ACID ESTER AND A SEALING REAGENT I” (Henkel AG & Co. KGaA, priority 2019, published 2022).
# Settings: 25° C.
solubility in water (in words),Compound,solubility in water
,"Nc1cc(S(=O)(=O)[O-])cc2cc(S(=O)(=O)[O-])c(N=Nc3ccccc3)c(O)c12.[Na+].[Na+] [Acid Red 33, disodium salt of 5-amino-4-hydroxy-3-(phenylazo)-naphthalene-2,7-disulphonate]",2.5 g/L
,"mixture of the sodium salts of mono- and disulfonic acids of 2-(2-quinolyl)-1H-indene-1,3(2H)-dione [Acid Yellow 3]",20 g/L
highly soluble,"O=C([O-])C1=NN(c2ccc(S(=O)(=O)[O-])cc2)C(=O)C1N=Nc1ccc(S(=O)(=O)[O-])cc1.[Na+].[Na+].[Na+] (centres unmarked) [Acid Yellow 23, trisodium salt of 4,5-dihydro-5-oxo-1-(4-sulfophenyl)-4-((4-sulfophenyl)azo)-1H-pyrazole-3-carboxylic acid]",
,"O=S(=O)([O-])c1ccc(N=Nc2c(O)ccc3ccccc23)cc1.[Na+] [Acid Orange 7, sodium salt of 4-[(2-hydroxy-1-naphthyl)azo]benzene sulphonate]",more than 7 g/L
,"O=C([O-])c1c(Cl)c(Cl)c(Cl)c(Cl)c1-c1c2c(Br)cc(=O)c(Br)c-2oc2c(Br)c(O)cc(Br)c12.O=C([O-])c1c(Cl)c(Cl)c(Cl)c(Cl)c1-c1c2c(Br)cc(=O)c(Br)c-2oc2c(Br)c(O)cc(Br)c12.[Na+].[Na+] [Acid Red 92, disodium salt of 3,4,5,6-tetrachloro-2-(1,4,5,8-tetrabromo-6-hydroxy-3-oxoxanthen-9-yl)benzoic acid]",greater than 10 g/L
